Assay results as given in patent US6737383B1, “Herbicidal oxadiazolidines” (priority 1999, dated 2004).

How the values were obtained:
duck salad = test: Test B flood test duck salad; type: in vivo, Heteranthera limosa
Outline: (§1)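 Each value is a visual injury score relative to controls, with 10 meaning complete control and 0 no effect. Evaluation took place twelve to sixteen days after the 2-leaf-stage plants were treated and kept in the greenhouse.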

wild oat = test: Test B pre/postemergence wild oat; type: in vivo, Avena fatua; details: for Plant response rating, Wild oats: Rate 250 g/ha
Outline: (§2)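 Response is a visual 0-to-10 score relative to untreated plants, where 0 means no effect and 10 means complete control, taken twelve to sixteen days after application. Treatments went onto soil at planting and onto foliage of 1- to 4-leaf plants, using a surfactant-containing non-phytotoxic solvent.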

soybean = test: Test B pre/postemergence soybean; type: in vivo, Glycine max
Outline: as §2

corn = test: Test B pre/postemergence corn; type: in vivo, Zea mays
Outline: as §2

rape = test: Test B pre/postemergence rape; type: in vivo, Brassica napus
Outline: as §2

velvetleaf = test: Test B pre/postemergence velvetleaf; type: in vivo, Abutilon theophrasti; details: for Plant response rating, Velvetleaf: Rate 250 g/ha
Outline: as §2

purple nutsedge = test: Test B pre/postemergence purple nutsedge; type: in vivo, Cyperus rotundus
Outline: as §2

smallflower flatsedge = test: Test B flood test smallflower flatsedge; type: in vivo, Cyperus difformis
Outline: as §1

cocklebur = test: Test B pre/postemergence cocklebur; type: in vivo, Xanthium strumarium
Outline: as §2

pigweed = test: Test B pre/postemergence pigweed; type: in vivo, Amaranthus retroflexus
Outline: as §2

wheat = test: Test B pre/postemergence wheat; type: in vivo, Triticum aestivum; details: for Plant response rating, Wheat: Rate 250 g/ha
Outline: as §2

rice = test: Test B flood test rice; type: in vivo, Oryza sativa
Outline: as §1

giant foxtail = test: Test B pre/postemergence giant foxtail; type: in vivo, Setaria faberii
Outline: as §2

surinam grass = test: Test B pre/postemergence surinam grass; type: in vivo, Brachiaria decumbens
Outline: as §2

sugar beet = test: Test B pre/postemergence sugar beet; type: in vivo, Beta vulgaris; details: for Plant response rating, Sugarbeets: Rate 250 g/ha
Outline: as §2

bedstraw = test: Test B pre/postemergence bedstraw; type: in vivo, Galium aparine
Outline: as §2

[1] = Rate 250 g/ha, headed Pre-emergence (flood test species), scale 0 to 10 (0 no effect, 10 complete control)
[2] = Rate 500 g/ha, headed Pre-emergence (flood test species), scale 0 to 10 (0 no effect, 10 complete control)
[3] = Rate 1000 g/ha, Pre-emergence (as headed), scale 0 to 10
[4] = Rate 2000 g/ha, Pre-emergence (as headed), scale 0 to 10
[5] = Postemergence, Rate 125 g/ha, scale of 0 to 10 where 0 is no effect and 10 is complete control
[6] = Preemergence, Rate 62 g/ha, scale 0 to 10 (0 no effect, 10 complete control)
[7] = Preemergence, Rate 125 g/ha, 0 is no effect, 10 is complete control
[8] = Preemergence, scale of 0 to 10 where 0 is no effect and 10 is complete control
[9] = Preemergence, Rate 500 g/ha, scale 0 to 10 (0 no effect, 10 complete control)
[10] = Rate 62 g/ha, Postemergence, scale of 0 to 10 where 0 is no effect and 10 is complete control
[11] = Postemergence, scale 0 to 10, 0 is no effect, 10 is complete control
[12] = Rate 500 g/ha, Postemergence, scale 0 to 10, 0 no effect, 10 complete control
[13] = Preemergence, Rate 125 g/ha, scale 0 to 10 (0 no effect, 10 complete control)
[14] = Preemergence, Rate 250 g/ha, scale of 0 to 10 where 0 is no effect and 10 is complete control
[15] = Rate 250 g/ha, Postemergence, scale 0 to 10, 0 is no effect, 10 is complete control
[16] = Postemergence, Rate 250 g/ha, scale 0 to 10, 0 no effect, 10 complete control
[17] = Postemergence, Rate 62 g/ha, scale 0 to 10, 0 is no effect, 10 is complete control
[18] = Rate 125 g/ha, Postemergence, scale 0 to 10, 0 no effect, 10 complete control

CCn1c(=O)on(C(=O)N(c2ccc(F)cc2)C(C)C)c1=O [Compound 107]
Ducksalad plant response rating (duck salad; [1]): 0 | Plant response rating, Ducksalad (duck salad; [2]): 0 | Ducksalad plant response rating (duck salad; [3]): 0 | Ducksalad plant response rating (duck salad; [4]): 0 | Wild oats plant response rating (wild oat; [5]): 3 | Wild oats plant response rating (wild oat; [6]): 9 | Wild oats plant response rating (0 to 10 scale) (wild oat; [7]): 9 | Plant response rating, Wild oats (wild oat; [8]): 10 | Wild oats plant response rating (wild oat; [9]): 10 | Wild oats plant response rating (wild oat; [10]): 0 | Plant response rating, Wild oats (wild oat; [11]): 5 | Wild oats plant response rating (wild oat; [12]): 9 | Soybean plant response rating (soybean; [5]): 4 | Soybean plant response rating (soybean; [6]): 0 | Plant response rating, Soybean (soybean; [13]): 3 | Plant response rating, Soybean (soybean; [14]): 5 | Soybean plant response rating (soybean; [9]): 8 | Soybean plant response rating (soybean; [10]): 3 | Plant response rating, Soybean (soybean; [15]): 4 | Soybean plant response rating (soybean; [12]): 5 | Corn plant response rating (corn; [5]): 2 | Corn plant response rating (corn; [16]): 5 | Corn plant response rating (corn; [6]): 4 | Plant response rating, Corn (corn; [13]): 7 | Plant response rating, Corn (corn; [14]): 9 | Corn plant response rating (corn; [9]): 9 | Corn plant response rating (corn; [10]): 2 | Corn plant response rating (corn; [12]): 6 | Rape plant response rating (rape; [5]): 2 | Rape plant response rating (rape; [16]): 3 | Rape plant response rating (rape; [6]): 3 | Plant response rating, Rape (rape; [13]): 8 | Plant response rating, Rape (rape; [14]): 9 | Rape plant response rating (rape; [9]): 10 | Rape plant response rating (rape; [10]): 0 | Rape plant response rating (rape; [12]): 8 | Velvetleaf plant response rating (velvetleaf; [5]): 5 | Velvetleaf plant response rating (velvetleaf; [6]): 7 | Velvetleaf plant response rating (0 to 10 scale) (velvetleaf; [7]): 10 | Plant response rating, Velvetleaf (velvetleaf; [8]): 10 | Velvetleaf plant response rating (velvetleaf; [9]): 10 | Velvetleaf plant response rating (velvetleaf; [10]): 4 | Plant response rating, Velvetleaf (velvetleaf; [11]): 5 | Velvetleaf plant response rating (velvetleaf; [12]): 7 | Nutsedge plant response rating (purple nutsedge; [5]): 3 | Nutsedge plant response rating (purple nutsedge; [16]): 5 | Nutsedge plant response rating (purple nutsedge; [6]): 0 | Plant response rating, Nutsedge (purple nutsedge; [13]): 0 | Plant response rating, Nutsedge (purple nutsedge; [14]): 2 | Nutsedge plant response rating (purple nutsedge; [9]): 6 | Nutsedge plant response rating (purple nutsedge; [10]): 3 | Nutsedge plant response rating (purple nutsedge; [12]): 6 | S. Flatsedge plant response rating (smallflower flatsedge; Pre-emergence, Rate 1000 g/ha, scale 0 to 10 (0 no effect, 10 complete control)): 0 | S. Flatsedge plant response rating (smallflower flatsedge; [1]): 0 | Plant response rating, S. Flatsedge (smallflower flatsedge; [2]): 0 | S. Flatsedge plant response rating (smallflower flatsedge; [4]): 5 | Cocklebur plant response rating (cocklebur; [5]): 0 | Cocklebur plant response rating (cocklebur; [16]): 1 | Cocklebur plant response rating (cocklebur; [6]): 0 | Plant response rating, Cocklebur (cocklebur; [13]): 0 | Plant response rating, Cocklebur (cocklebur; [14]): 0 | Cocklebur plant response rating (cocklebur; [9]): 0 | Cocklebur plant response rating (cocklebur; [10]): 0 | Cocklebur plant response rating (cocklebur; [12]): 3 | Redroot pigweed plant response rating (pigweed; [5]): 0 | Redroot pigweed plant response rating (pigweed; [6]): 10 | Plant response rating, Redroot pigweed (pigweed; [13]): 10 | Plant response rating, Redroot pigweed (pigweed; [14]): 10 | Redroot pigweed plant response rating (pigweed; [9]): 10 | Redroot pigweed plant response rating (pigweed; [10]): 0 | Plant response rating, Redroot pigweed (pigweed; [15]): 5 | Redroot pigweed plant response rating (pigweed; [12]): 8 | Wheat plant response rating (wheat; [5]): 5 | Wheat plant response rating (wheat; [6]): 0 | Wheat plant response rating (0 to 10 scale) (wheat; [7]): 5 | Plant response rating, Wheat (wheat; [8]): 7 | Wheat plant response rating (wheat; [9]): 8 | Wheat plant response rating (wheat; [10]): 2 | Plant response rating, Wheat (wheat; [11]): 7 | Wheat plant response rating (wheat; [12]): 8 | Rice plant response rating (rice; [1]): 0 | Plant response rating, Rice (rice; [2]): 0 | Rice plant response rating (rice; [3]): 0 | Rice plant response rating (rice; [4]): 0 | Giant foxtail plant response rating (giant foxtail; [5]): 8 | Giant foxtail plant response rating (giant foxtail; [16]): 8 | Giant foxtail plant response rating (giant foxtail; [6]): 10 | Plant response rating, Giant foxtail (giant foxtail; [13]): 10 | Plant response rating, Giant foxtail (giant foxtail; [14]): 10 | Giant foxtail plant response rating (giant foxtail; [9]): 10 | Giant foxtail plant response rating (giant foxtail; [10]): 8 | Giant foxtail plant response rating (giant foxtail; [12]): 8 | B. signalgrass plant response rating (surinam grass; [17]): 7 | B. signalgrass plant response rating (surinam grass; [16]): 8 | B. signalgrass plant response rating (surinam grass; [6]): 5 | Plant response rating, B. signalgrass (surinam grass; [13]): 7 | Plant response rating, B. signalgrass (surinam grass; [14]): 10 | B. signalgrass plant response rating (surinam grass; [9]): 10 | B. signalgrass plant response rating (surinam grass; [18]): 7 | B. signalgrass plant response rating (surinam grass; Rate 500 g/ha, Postemergence, scale of 0 to 10 where 0 is no effect and 10 is complete control): 8 | Sugarbeets plant response rating (sugar beet; [5]): 2 | Sugarbeets plant response rating (sugar beet; [6]): 4 | Sugarbeets plant response rating (0 to 10 scale) (sugar beet; [7]): 7 | Plant response rating, Sugarbeets (sugar beet; [8]): 10 | Sugarbeets plant response rating (sugar beet; [9]): 10 | Sugarbeets plant response rating (sugar beet; [10]): 0 | Plant response rating, Sugarbeets (sugar beet; [11]): 5 | Sugarbeets plant response rating (sugar beet; [12]): 7 | Bedstraw plant response rating (bedstraw; [17]): 2 | Bedstraw plant response rating (bedstraw; [16]): 4 | Bedstraw plant response rating (bedstraw; [6]): 2 | Plant response rating, Bedstraw (bedstraw; [13]): 7 | Plant response rating, Bedstraw (bedstraw; [14]): 10 | Bedstraw plant response rating (bedstraw; [9]): 10 | Bedstraw plant response rating (bedstraw; [18]): 3 | Bedstraw plant response rating (bedstraw; [12]): 9
